The results in this text go back to BindingDB's records for patent US9527838 (Merck Sharp & Dohme Corp, 2016).

Hexokinase-4, sequence (P35557 whole entry, other chains not shown, the tested form may be a part): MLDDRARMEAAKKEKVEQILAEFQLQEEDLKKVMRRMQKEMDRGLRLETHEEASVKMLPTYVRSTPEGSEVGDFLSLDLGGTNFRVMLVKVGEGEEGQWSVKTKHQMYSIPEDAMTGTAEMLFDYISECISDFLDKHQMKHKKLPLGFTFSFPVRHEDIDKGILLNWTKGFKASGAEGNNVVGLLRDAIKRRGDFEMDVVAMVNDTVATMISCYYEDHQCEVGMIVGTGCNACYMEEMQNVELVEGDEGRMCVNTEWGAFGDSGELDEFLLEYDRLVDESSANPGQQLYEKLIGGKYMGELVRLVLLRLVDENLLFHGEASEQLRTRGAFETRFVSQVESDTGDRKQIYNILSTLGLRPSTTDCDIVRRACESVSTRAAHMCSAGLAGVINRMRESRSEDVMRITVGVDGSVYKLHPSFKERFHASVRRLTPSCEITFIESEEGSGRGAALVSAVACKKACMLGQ

The target of the assay is Hexokinase-4 (Human, UniProt P35557). The experiment in a line: Glucokinase Activity Assay. The method, then:
Recombinant human liver glucokinase was expressed as a FLAG fusion protein in E. coli, and purified on […] M2 AFFINITY GEL (Sigma). The assay was carried out at 30° C. in a 96-well plate. In the plate was distributed 69 μl each of assay buffer (25 mM Hepes Buffer: pH=7.2, 2 mM MgCl2, 1 mM ATP, 0.5 mM TNAD, 1 mM dithiothreitol), to which was added 1 μl of a DMSO solution of the compound or DMSO as control. Then, 20 μl of pre-ice-cooled enzyme mixture (FLAG-GK, 20 U/ml G6PDH) was distributed thereto, to which was added 10 μl of 25 mM glucose as substrate to initiate the reaction (final glucose concentration=2.5 mM). After starting the reaction, the absorbance at 405 nm was measured every 30 seconds for 10 minutes to evaluate the compound based on the initial increase for 5 minutes. FLAG-GK was added so that the increase of absorbance after 5 minutes fell between 0.05 to 0.1 in the presence of 1% DMSO.
`CCOC(=O)Cc1nc(NC(=O)c2nc(Sc3ccc(F)cc3)ccc2Sc2ccc(F)cc2)sc1Cl` [US9527838, 29] gave an EC50 of 16000 nM.
Compound `CCOC(=O)CSc1cnc(NC(=O)c2nc(Sc3ccc(F)cc3)ccc2Sc2ccc(F)cc2)s1` [US9527838, 27] showed an EC50 of 386 nM.
Regarding `CCOC(=O)C(C)(C)CSc1cnc(NC(=O)c2nc(Sc3nncn3C)ccc2Sc2ccc(F)cc2)s1` [US9527838, 20], the EC50 came out at 16.9 nM.

As usually defined, the EC50 is the midpoint of the concentration-response curve. Low values mean a more potent agent, high ones a less potent agent.
